Test results reported in ChEMBL document CHEMBL1151408 (J Nat Prod, 1983).

Legend:
[1] = species: Mus musculus; experiment: Increase in hepatic ethylmorphine N-demethylase activity in mouse; assay type: functional
[2] = species: Mus musculus; experiment: Increase in aryl hydrocarbon hydroxylase activity in mouse; assay type: functional

CO[C@H]1/C=C/O[C@@]2(C)Oc3c(C)c(O)c4c(O)c(c(/C=N/N5CCN(C)CC5)c(O)c4c3C2=O)NC(=O)/C(C)=C\C=C\[C@H](C)[C@H](O)[C@@H](C)[C@@H](O)[C@@H](C)[C@H](OC(C)=O)[C@@H]1C [RIFAMPIN]
Activity [1]: 85%
Activity [2]: 174%
